Results taken from patent US9745360B2 (Sanofi, priority 2012, dated 2017).
*1 amine or outer side, *2 acyl side, *3 side chain or, on linkers, in order; H or OH if unused. Where a SMILES comes first, the peptide text is derived from it. Side-chain parts run from the residue outwards. [ ]: non-standard residue; d: D form. The star is where a group is joined. γGlu = O=C(O)[C@H](CCC(=O)[*:2])N[*:1]; Palmitoyl = CCCCCCCCCCCCCCCC(=O)*; αMeK = C[C@](N)(CCCCN)C(=O)O; Aib = CC(C)(N)C(=O)O

Columns and labels:
[1] = Chemical stability in solution, 7 days at 25° C., % remaining peptide; type: physicochemical; conditions: % remaining peptide after 7 days at 25° C.
Description: The chemical stability is expressed as “% remaining peptide”.
Solubility and chemical stability of peptidic compounds were assessed as described in Methods.

[2] = Pharmacokinetic testing in mice, s.c., LC/MS of plasma; type: in vivo; conditions: mouse, sc, 1 mg/kg s.c.
Description: Mice were dosed 1 mg/kg subcutaneously (s.c.).
(§1) Pharmacokinetic profiles were determined as described in Methods.

[3] = Pharmacokinetic testing in female Göttinger minipigs, s.c., LC/MS of plasma; type: in vivo; conditions: minipig, sc, Mini pigs, 0.1 mg/kg s.c.
Description: as §1

[4] = Subchronic effect on body weight in female diet-induced obese (DIO) C57BL/6NCrl mice (method 2); type: in vivo; conditions: for Overall weight change: 3-week treatment, mean ± SEM; for decrease of body weight, relative change from baseline: 3 weeks
Description: Female C57BL/6NCrl mice were housed in groups in a specific pathogen-free barrier facility on a 12 h light/dark cycle with free access to water and high-fat diet. After 14 weeks on high-fat diet, mice were stratified to treatment groups (n=8), so that each group had similar mean body weight. An aged-matched group with ad libitum access to standard chow and water was included as standard control group.
Before the experiment, mice were subcutaneously (s.c.) injected with vehicle solution and weighed for 3 days to acclimate them to the procedures. […] Body weight was recorded daily.
Statistical analyses were performed with Everstat 6.0 by repeated measures two-way ANOVA and Dunnett's post-hoc analyses (glucose profile) and 1-way-ANOVA, followed by Dunnett's post-hoc test (body weight, body fat). Differences versus vehicle-treated DIO control mice were considered statistically significant at the p<0.05 level.
Subchronic effects of SEQ ID NO: 11 after subcutaneous treatment on body weight in female diet-induced obese (DIO) C57BL/6NCrl mice (14 weeks of prefeeding with high-rat diet, method 2)
Female obese C57BL/6NCrl mice were treated for 3 weeks once daily subcutaneously in the late afternoon, prior at the end of the light phase (12 h lights on) with 3 μg/kg and 10 μg/kg SEQ ID NO: 11 or vehicle. Body weight was recorded daily.

Structure (SMILES): CCCCCCCCCCCCCCCC(=O)N[C@@H](CCC(=O)NCCCC[C@H](NC(=O)[C@H](CCC(N)=O)NC(=O)[C@@H](NC(=O)[C@H](CO)NC(=O)[C@H](CC(C)C)NC(=O)[C@H](CC(=O)O)NC(=O)[C@H](CO)NC(=O)[C@@H](NC(=O)[C@H](Cc1ccccc1)NC(=O)[C@@H](NC(=O)CNC(=O)[C@H](CCC(=O)O)NC(=O)C(C)(C)NC(=O)[C@@H](N)Cc1ccc(O)cc1)[C@@H](C)O)[C@@H](C)O)[C@@H](C)CC)C(=O)N[C@@H](CCC(=O)O)C(=O)N[C@@H](CCC(=O)O)C(=O)N[C@@H](CCCNC(=N)N)C(=O)N[C@@H](C)C(=O)N[C@@H](C)C(=O)N[C@@](C)(CCCCN)C(=O)N[C@@H](CCC(=O)O)C(=O)N[C@@H](Cc1ccccc1)C(=O)N[C@H](C(=O)N[C@@H](CCC(=O)O)C(=O)N[C@@H](Cc1c[nH]c2ccccc12)C(=O)N[C@@H](CC(C)C)C(=O)N[C@@H](CCCCN)C(=O)N[C@@H](CC(N)=O)C(=O)N[C@H](C(=O)NCC(=O)N1CCC[C@H]1C(=O)N[C@@H](CO)C(=O)N[C@@H](CO)C(=O)NCC(=O)N[C@@H](C)C(=O)N1CCC[C@H]1C(=O)N1CCC[C@H]1C(=O)N1CCC[C@H]1C(=O)N[C@@H](CO)C(N)=O)[C@@H](C)O)[C@@H](C)CC)C(=O)O [SEQ ID NO: 11, Y-Aib-E-G-T-F-T-S-D-L-S-I-Q-K(γE-x53)-E-E-R-A-A-(S)MeLys-E-F-I-E-W-L-K-N-T-G-P-S-S-G-A-P-P-P-S-NH2] (H-Y[Aib]EGTFTSDLSIQK([γGlu-Palmitoyl])EERAA[αMeK]EFIEWLKNTGPSSGAPPPS-NH2)
- Stability (pH 4.5) ([1]; pH 4.5): 100.0%
- Stability (pH 7.4) ([1]; pH 7.4): 99.0%
- Cmax [2]: 5940 ng/mL
- half-life [2]: 4.3 h
- Cmax [3]: 302 ng/mL
- half-life [3]: 12.6 h
- Overall weight change ([4]; 3 μg/kg s.c. once daily): -3.2 ± 0.6 g
- decrease of body weight, relative change from baseline ([4]; 3 μg/kg s.c. once daily): 7.6%
- Overall weight change ([4]; 10 μg/kg s.c. once daily): -6.8 ± 0.7 g
- decrease of body weight, relative change from baseline ([4]; 10 μg/kg s.c. once daily): 17.4%
